As usually defined, the IC50 is the concentration that inhibits the measured activity by half.

22 compounds from patent US10227323B2, “Glucosylceramide synthase inhibitors for the treatment of diseases” (BIOMARIN PHARMACEUTICAL INC., priority 2013, dated 2019) can be followed below.

The test addresses T1, GCS (Canis lupus familiaris, UniProt A0A8I3MXG6).
T1 sequence (A0A8I3MXG6 1-394): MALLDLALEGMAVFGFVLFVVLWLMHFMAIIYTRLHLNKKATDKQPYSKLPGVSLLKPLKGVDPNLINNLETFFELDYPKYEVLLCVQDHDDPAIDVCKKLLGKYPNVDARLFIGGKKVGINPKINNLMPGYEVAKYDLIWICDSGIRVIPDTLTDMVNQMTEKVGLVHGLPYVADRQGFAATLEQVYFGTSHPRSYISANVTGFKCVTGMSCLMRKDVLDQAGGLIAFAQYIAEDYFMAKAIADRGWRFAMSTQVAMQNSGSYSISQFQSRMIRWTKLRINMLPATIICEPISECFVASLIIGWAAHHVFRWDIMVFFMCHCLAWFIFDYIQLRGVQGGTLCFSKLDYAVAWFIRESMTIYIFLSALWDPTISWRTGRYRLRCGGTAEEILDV
The test can be described thus: Assay 1: GCS Enzymatic Assay (MDCK cell lysate, C6-NBD-Ceramide, LC/MS). It is filed as biochemical, canine. The note with it: Table 1, MDCK cell lysate; for IC50: read-out: IC50 (nM) generated from Assay 1; for % inhibition generated from Assay 1: values marked *. An outline of the steps: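 LC/MS/MS measurement of glucosylceramide and NBD-ceramide after a 1 h, 37 °C reaction with 100 μM UDP-glucose and 10 μM C6-NBD-ceramide gave IC50s or percent inhibition.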

`O=C(N[C@H](CN1CC[C@@H](F)C1)[C@H](O)c1ccc2c(c1)OCCO2)C(F)(F)c1cc2cc(Cl)ccc2o1` [Compound 46, 2-(5-chlorobenzofuran-2-yl)-N-((1R,2R)-1-(2,3-dihydrobenzo[b][1,4]dioxin-6-yl)-3-((1R)-3-fluoropyrrolidin-1-yl)-1-hydroxypropan-2-yl)-2,2-difluoroacetamide]: the IC50 was 50 to 5000 nM. Regarding `O=C(N[C@H](CN1CC2(CCC2)C1)[C@H](O)c1ccc2c(c1)OCCO2)C(F)(F)c1cc2cc(Cl)ccc2o1` [Compound 48, 2-(5-chlorobenzofuran-2-yl)-N-((1R,2R)-1-(2,3-dihydrobenzo[b][1,4]dioxin-6-yl)-1-hydroxy-3-(2-azaspiro[3.3]heptan-2-yl)propan-2-yl)-2,2-difluoroacetamide], the “% inhibition generated from Assay 1” value is on record as “B* (the compound had a % inhibition of greater than or equal to about 3% but less than about 50%)”. Turning to `Cn1ncc2cc([C@@H](O)[C@@H](CN3CCCC3)NC(=O)C(F)(F)c3cc4cc(Cl)ccc4o3)ccc21` [Compound 49, 2-(5-chlorobenzofuran-2-yl)-2,2-difluoro-N-((1R,2R)-1-hydroxy-1-(1-methyl-1H-indazol-5-yl)-3-(pyrrolidin-1-yl)propan-2-yl)acetamide], the IC50 lay in the range of 50 to 5000 nM. The same measure, in the same setting: the same measure for `O=C(N[C@H](CN1CCCC1)[C@H](O)c1ccc2c(c1)OCCO2)C(F)(F)C1Cc2ccc(-c3ccccn3)cc2C1` (stereo partly drawn) [Compound 50, N-((1R,2R)-1-(2,3-dihydrobenzo[b][1,4]dioxin-6-yl)-1-hydroxy-3-(pyrrolidin-1-yl)propan-2-yl)-2,2-difluoro-2-(5-(pyridin-2-yl)-2,3-dihydro-1H-inden-2-yl)acetamide]: less than 50 nM; for `O=C(N[C@H](CN1CC2CCC1C2)[C@H](O)c1ccc2c(c1)OCCO2)C(F)(F)c1cc2cc(Cl)ccc2o1` (stereo partly drawn) [Compound 51, N-((1R,2R)-3-(2-azabicyclo[2.2.1]heptan-2-yl)-1-(2,3-dihydrobenzo[b][1,4]dioxin-6-yl)-1-hydroxypropan-2-yl)-2-(5-chlorobenzofuran-2-yl)-2,2-difluoroacetamide]: less than 50 nM. Regarding `O=C(N[C@H](CN1CCCC1)[C@H](O)c1ccc(OC2CC2)c(Cl)c1)C(F)(F)CCc1ccc2ccccc2c1` [Compound 52, N-((1R,2R)-1-(3-chloro-4-cyclopropoxyphenyl)-1-hydroxy-3-(pyrrolidin-1-yl)propan-2-yl)-2,2-difluoro-4-(naphthalen-2-yl)butanamide], the IC50 was less than 50 nM. As for `O=C(N[C@H](CN1C2CCC1CC2)[C@H](O)c1ccc2c(c1)OCCO2)C(F)(F)c1cc2cc(Cl)ccc2o1` [Compound 53, N-((1R,2R)-3-(7-azabicyclo[2.2.1]heptan-7-yl)-1-(2,3-dihydrobenzo[b][1,4]dioxin-6-yl)-1-hydroxypropan-2-yl)-2-(5-chlorobenzofuran-2-yl)-2,2-difluoroacetamide], the 50% inhibitory concentration (IC50) is less than 50 nM.

For the compound `Cn1ncc2ccc([C@@H](O)[C@@H](CN3CCCC3)NC(=O)C(F)(F)c3cc4cc(Cl)ccc4o3)cc21` [Compound 54, 2-(5-chlorobenzofuran-2-yl)-2,2-difluoro-N-((1R,2R)-1-hydroxy-1-(1-methyl-1H-indazol-6-yl)-3-(pyrrolidin-1-yl)propan-2-yl)acetamide], the “% inhibition generated from Assay 1” value is on record as “B* (the compound had a % inhibition of greater than or equal to about 3% but less than about 50%)”. Take `Cn1ncc2ccc([C@H](O)[C@@H](CN3CCCC3)NC(=O)C(F)(F)c3cc4cc(Cl)ccc4o3)cc21` [Compound 54G, 2-(5-chlorobenzofuran-2-yl)-2,2-difluoro-N-((1S,2R)-1-hydroxy-1-(1-methyl-1H-indazol-6-yl)-3-(pyrrolidin-1-yl)propan-2-yl)acetamide]: the “% inhibition generated from Assay 1” value is on record as “B* (the compound had a % inhibition of greater than or equal to about 3% but less than about 50%)”. `COc1ccc([C@@H](O)[C@@H](CN2CCCC2)NC(=O)C(F)(F)c2cc3cc(Cl)ccc3o2)cn1` [Compound 56, 2-(5-chlorobenzofuran-2-yl)-2,2-difluoro-N-((1R,2R)-1-hydroxy-1-(6-methoxypyridin-3-yl)-3-(pyrrolidin-1-yl)propan-2-yl)acetamide]: the IC50 was less than 50 nM. The same measure, in the same setting: the same measure for `[2H][C@@](O)(c1ccc2c(c1)OCCO2)[C@@H](CN1CCCC1)NC(=O)C(F)(F)c1cc2cc(Cl)ccc2o1` [Compound 57, 2-(5-chlorobenzofuran-2-yl)-N-((1R,2R)-1-(2,3-dihydrobenzo[b][1,4]dioxin-6-yl)-1-deutero-1-hydroxy-3-(pyrrolidin-1-yl)propan-2-yl)-2,2-difluoroacetamide]: less than 50 nM; for `O=C(N[C@H](CN1CCCC1)C(O)c1ccc2c(c1)OCCO2)C(F)(F)c1cc2cc(Cl)ccc2o1` (stereo partly drawn) [Compound 57B, N-[2-(2H,3H-benzo[e]1,4-dioxan-6-yl)(1R)-2-hydroxy-1-(pyrrolidinylmethyl)ethyl]-2-(5-chlorobenzo[d]furan-2-yl)-2,2-difluoroacetamide]: less than 50 nM. Regarding `[2H][C@](O)(c1ccc2c(c1)OCCO2)[C@@H](CN1CCCC1)NC(=O)C(F)(F)c1cc2cc(Cl)ccc2o1` [Compound 57C, 2-(5-chlorobenzofuran-2-yl)-N-((1S,2R)-1-(2,3-dihydrobenzo[b][1,4]dioxin-6-yl)-1-deutero-1-hydroxy-3-(pyrrolidin-1-yl)propan-2-yl)-2,2-difluoroacetamide], the “% inhibition generated from Assay 1” value is on record as “B* (the compound had a % inhibition of greater than or equal to about 3% but less than about 50%)”. Consider `COc1ccc([C@@H](O)[C@@H](CN2CCCC2)NC(=O)C(F)(F)c2cc3cc(Cl)ccc3o2)cc1C(F)F` [Compound 59, 2-(5-chlorobenzofuran-2-yl)-N-((1R,2R)-1-(3-(difluoromethyl)-4-methoxyphenyl)-1-hydroxy-3-(pyrrolidin-1-yl)propan-2-yl)-2,2-difluoroacetamide], for which the IC50 fell in the range of 50 to 5000 nM.

For `COc1ccc([C@H](O)[C@@H](CN2CCCC2)NC(=O)C(F)(F)c2cc3cc(Cl)ccc3o2)cc1C(F)F` [Compound 59I, 2-(5-chlorobenzofuran-2-yl)-N-((1S,2R)-1-(3-(difluoromethyl)-4-methoxyphenyl)-1-hydroxy-3-(pyrrolidin-1-yl)propan-2-yl)-2,2-difluoroacetamide], the “% inhibition generated from Assay 1” value is listed as “B* (the compound had a % inhibition of greater than or equal to about 3% but less than about 50%)”. Regarding `[2H]C([2H])(C(=O)N[C@H](CN1CCCC1)[C@H](O)c1ccc2c(c1)OCCO2)c1cc2cc(Cl)ccc2o1` [Compound 60, 2-(5-chlorobenzofuran-2-yl)-N-((1R,2R)-1-(2,3-dihydrobenzo[b][1,4]dioxin-6-yl)-1-hydroxy-3-(pyrrolidin-1-yl)propan-2-yl)-2,2-dideutero-acetamide], the IC50 is less than 50 nM. With `O=C(N[C@H](CN1CCCC1)[C@H](O)c1cc2c(cc1Br)OCCO2)C(F)(F)c1cc2cc(Cl)ccc2o1` [Compound 61, N-((1R,2R)-1-(7-bromo-2,3-dihydrobenzo[b][1,4]dioxin-6-yl)-1-hydroxy-3-(pyrrolidin-1-yl)propan-2-yl)-2-(5-chlorobenzofuran-2-yl)-2,2-difluoroacetamide], the “% inhibition generated from Assay 1” value is reported as “B* (the compound had a % inhibition of greater than or equal to about 3% but less than about 50%)”. The same measure, in the same setting: the result for `CC1(C)CN(C[C@@H](NC(=O)C(F)(F)c2cc3cc(Cl)ccc3o2)[C@H](O)c2ccc3c(c2)OCCO3)C1` [Compound 62, 2-(5-chlorobenzofuran-2-yl)-N-((1R,2R)-1-(2,3-dihydrobenzo[b][1,4]dioxin-6-yl)-3-(3,3-dimethylazetidin-1-yl)-1-hydroxypropan-2-yl)-2,2-difluoroacetamide] reads “B* (the compound had a % inhibition of greater than or equal to about 3% but less than about 50%)”. On to `O=C(N[C@H](CN1CCCC1)[C@H](O)c1ccc2c(c1)OCCO2)C(F)(F)C1Cc2ccc(Cl)cc2C1` (stereo partly drawn) [Compound 63, 2-(5-chloro-2,3-dihydro-1H-inden-2-yl)-N-((1R,2R)-1-(2,3-dihydrobenzo[b][1,4]dioxin-6-yl)-1-hydroxy-3-(pyrrolidin-1-yl)propan-2-yl)-2,2-difluoroacetamide], for which the 50% inhibitory concentration (IC50) was less than 50 nM. On the same count and under the same terms, the result for `O=C(N[C@H](CN1CCCC1)[C@H](O)c1cc(F)c2c(c1)OCCO2)C(F)(F)c1cc2cc(Cl)ccc2o1` [Compound 64, 2-(5-chlorobenzofuran-2-yl)-2,2-difluoro-N-((1R,2R)-1-(8-fluoro-2,3-dihydrobenzo[b][1,4]dioxin-6-yl)-1-hydroxy-3-(pyrrolidin-1-yl)propan-2-yl)acetamide] reads less than 50 nM; that for `O=C(N[C@H](CN1CCCC1)[C@H](O)c1cc(Cl)c2c(c1)OCCO2)C(F)(F)c1cc2cc(Cl)ccc2o1` [Compound 65, N-((1R,2R)-1-(8-chloro-2,3-dihydrobenzo[b][1,4]dioxin-6-yl)-1-hydroxy-3-(pyrrolidin-1-yl)propan-2-yl)-2-(5-chlorobenzofuran-2-yl)-2,2-difluoroacetamide], less than 50 nM. For `CC1CN(C[C@@H](NC(=O)C(F)(F)c2cc3cc(Cl)ccc3o2)[C@H](O)c2ccc3c(c2)OCCO3)C1` [Compound 66, 2-(5-chlorobenzofuran-2-yl)-N-((1R,2R)-1-(2,3-dihydrobenzo[b][1,4]dioxin-6-yl)-1-hydroxy-3-(3-methylazetidin-1-yl)propan-2-yl)-2,2-difluoroacetamide], the IC50 was less than 50 nM.
